Values quoted from earlier work, collected in patent US9848760B2, “Devices for continual monitoring and introduction of gastrointestinal microbes” (Gearbox, LLC, priority 2009, dated 2017).

Assays:
[1] = system: enterotoxigenic Escherichia coli (ETEC); conditions: ETEC infection, MIC90 level, FIG. 17
[2] = system: intestinal microbes
[3] = infant stool, associated with treatment
[4] = infant treated at 4 months of age, relative to reference microbial profile at 1 month of age

CC1(C)S[C@@H]2[C@H](NC(=O)[C@H](N)c3ccccc3)C(=O)N2[C@H]1C(=O)O [AMP, ampicillin]
MIC values [1]: high

COc1cc(Cc2cnc(N)nc2N)cc(OC)c1OC [TMP, trimethoprim]
MIC values [1]: high

CC1(C)S[C@@H]2[C@H](NC(=O)[C@H](N)c3ccc(O)cc3)C(=O)N2[C@H]1C(=O)O [amoxicillin]
abundance of bacilli [2, 3]: increases | abundance of gamma proteobacteria [2, 3]: reductions | bacterial composition in stool samples [2, 4]: altered | total bacterial density in stool samples [2, 4]: decrease

TMP/sulfamethoxazole [SXT]
MIC values [1]: high
